Like-named read-outs stand apart in the source and are kept apart here.
Assays:
Test in all cases: stopped-flow CO2 hydration assay
Type in all cases: biochemical
hCA II [1] = biological target: T1, hCA II (Homo sapiens, UniProt P00918); settings: read-out: KI (nM)^a,b / hCA I
T1 construct: gene CA2; recombinant, obtained in-house as reported earlier; cytosolic

hCA I = biological target: T2, hCA I (Homo sapiens, UniProt P00915); settings: read-out: KI (nM)^a,b / hCA I
T2 construct: gene CA1; recombinant, obtained in-house as reported earlier; cytosolic
Source text: stopped-flow CO2 hydration assay on hCA I

hCA II [2] = biological target: T1, hCA II; settings: read-out: KI (nM)^a,b / hCA II
Source text: stopped-flow CO2 hydration assay on hCA II

T2 sequence (P00915 2-261): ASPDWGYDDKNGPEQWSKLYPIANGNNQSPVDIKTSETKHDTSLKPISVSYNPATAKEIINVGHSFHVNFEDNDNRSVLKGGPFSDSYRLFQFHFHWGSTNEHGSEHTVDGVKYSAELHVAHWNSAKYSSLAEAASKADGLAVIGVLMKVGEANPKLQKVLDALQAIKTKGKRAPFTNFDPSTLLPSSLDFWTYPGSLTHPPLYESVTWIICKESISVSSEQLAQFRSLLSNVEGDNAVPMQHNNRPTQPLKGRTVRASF

Ki (hCA II [1]) [nM]	Ki (hCA I) [nM]	Ki (hCA II [2]) [nM]	Compound
> 100000	> 100000		COc1cccc2c1C(C)=NS(=O)(=O)O2 [2a, 5-Methoxy-4-methyl-1,2,3-benzoxathiazine 2,2-dioxide]
	60600	936	CC1=NS(=O)(=O)Oc2ccc(-c3ccccc3)cc21 [5a, 4-Methyl-6-phenyl-1,2,3-benzoxathiazine 2,2-dioxide]
	24500	1530	CC1=NS(=O)(=O)Oc2ccc(-c3ccc(F)cc3)cc21 [5b, 6–(4-Fluorophenyl)-4-methyl-1,2,3-benzoxathiazine 2,2-dioxide]
	12400	229	CC1=NS(=O)(=O)Oc2ccc(F)cc21 [2c, 6-Fluoro-4-methyl-1,2,3-benzoxathiazine 2,2-dioxide]
	> 100000	5570	CC1=NS(=O)(=O)Oc2ccc(Br)cc21 [2e, 6-Bromo-4-methyl-1,2,3-benzoxathiazine 2,2-dioxide]
	> 100000	11500	CC1=NS(=O)(=O)Oc2cc(Br)ccc21 [2j, 7-Bromo-4-methyl-1,2,3-benzoxathiazine 2,2-dioxide]
	21000	457	CC1=NS(=O)(=O)Oc2ccc(C)cc21 [2b, 4,6-Dimethyl-1,2,3-benzoxathiazine 2,2-dioxide]
	82100	1660	CC1=NS(=O)(=O)Oc2cc(Cl)ccc21 [2i, 7-Chloro-4-methyl-1,2,3-benzoxathiazine 2,2-dioxide]
	> 100000	3170	COc1ccc(-c2ccc3c(c2)OS(=O)(=O)N=C3C)cc1 [5h, 7–(4-Methoxyphenyl)-4-methyl-1,2,3-benzoxathiazine 2,2-dioxide]
	> 100000	2360	CC1=NS(=O)(=O)Oc2cc(-c3ccccc3)ccc21 [5f, 4-Methyl-7-phenyl-1,2,3-benzoxathiazine 2,2-dioxide]
	> 100000	4530	CC1=NS(=O)(=O)Oc2ccc(-c3ccc(Cl)c(Cl)c3)cc21 [5d, 6–(3,4-Dichlorophenyl)-4-methyl-1,2,3-benzoxathiazine 2,2-dioxide]
	> 100000	10000	CC1=NS(=O)(=O)Oc2cc(-c3ccc(Cl)c(Cl)c3)ccc21 [5i, 7–(3,4-Dichlorophenyl)-4-methyl-1,2,3-benzoxathiazine 2,2-dioxide]
	19600	8250	CCOC(=O)c1ccc(-c2ccc3c(c2)C(C)=NS(=O)(=O)O3)cc1 [5e, Ethyl 4–(4-methyl-2,2-dioxido-1,2,3-benzoxathiazin-6-yl)benzoate]
	33200	788	CC1=NS(=O)(=O)Oc2cc(C)ccc21 [2f, 4,7-Dimethyl-1,2,3-benzoxathiazine 2,2-dioxide]
	> 100000	5370	CC1=NS(=O)(=O)Oc2cc(-c3ccc(F)cc3)ccc21 [5g, 7–(4-Fluorophenyl)-4-methyl-1,2,3-benzoxathiazine 2,2-dioxide]
	45700	634	CC1=NS(=O)(=O)Oc2ccc(Cl)cc21 [2d, 6-Chloro-4-methyl-1,2,3-benzoxathiazine 2,2-dioxide]
	> 100000	6780	CCOC(=O)c1ccc(-c2ccc3c(c2)OS(=O)(=O)N=C3C)cc1 [5j, Ethyl 4–(4-methyl-2,2-dioxido-1,2,3-benzoxathiazin-7-yl)benzoate]
	10500	284	CC1=NS(=O)(=O)Oc2cc(F)ccc21 [2h, 7-Fluoro-4-methyl-1,2,3-benzoxathiazine 2,2-dioxide]
	24900	559	COc1ccc2c(c1)OS(=O)(=O)N=C2C [2g, 7-Methoxy-4-methyl-1,2,3-benzoxathiazine 2,2-dioxide]
	70500	7120	COc1ccc(-c2ccc3c(c2)C(C)=NS(=O)(=O)O3)cc1 [5c, 6–(4-Methoxyphenyl)-4-methyl-1,2,3-benzoxathiazine 2,2-dioxide]
